Reference: ChEMBL document CHEMBL5532655, “Discovery of (R)-4-(8-methoxy-2-methyl-1-(1-phenylethy)-1H-imidazo[4,5-c]quinnolin-7-yl)-3,5-dimethylisoxazole as a potent and selective BET inhibitor for treatment of acute myeloid leukemia (AML) guided by FEP calculation” (Eur J Med Chem, 2024)

Key:
[1] = biological target: Transcription initiation factor TFIID subunit 1 (Homo sapiens) (UniProt P21675); conditions: time 30.0 min
[2] = biological target: SWI/SNF-related matrix-associated actin-dependent regulator of chromatin subfamily A member 4 (Homo sapiens) (UniProt P51532); assay: Binding affinity to SMARCA4 (unknown origin) using biotinylated histone peptide H4 as substrate at 1 uM incubated for 2 hrs by AlphaScreen assay relative to control
Chain of SWI/SNF-related matrix-associated actin-dependent regulator of chromatin subfamily A member 4 (Homo sapiens) (P51532 whole entry): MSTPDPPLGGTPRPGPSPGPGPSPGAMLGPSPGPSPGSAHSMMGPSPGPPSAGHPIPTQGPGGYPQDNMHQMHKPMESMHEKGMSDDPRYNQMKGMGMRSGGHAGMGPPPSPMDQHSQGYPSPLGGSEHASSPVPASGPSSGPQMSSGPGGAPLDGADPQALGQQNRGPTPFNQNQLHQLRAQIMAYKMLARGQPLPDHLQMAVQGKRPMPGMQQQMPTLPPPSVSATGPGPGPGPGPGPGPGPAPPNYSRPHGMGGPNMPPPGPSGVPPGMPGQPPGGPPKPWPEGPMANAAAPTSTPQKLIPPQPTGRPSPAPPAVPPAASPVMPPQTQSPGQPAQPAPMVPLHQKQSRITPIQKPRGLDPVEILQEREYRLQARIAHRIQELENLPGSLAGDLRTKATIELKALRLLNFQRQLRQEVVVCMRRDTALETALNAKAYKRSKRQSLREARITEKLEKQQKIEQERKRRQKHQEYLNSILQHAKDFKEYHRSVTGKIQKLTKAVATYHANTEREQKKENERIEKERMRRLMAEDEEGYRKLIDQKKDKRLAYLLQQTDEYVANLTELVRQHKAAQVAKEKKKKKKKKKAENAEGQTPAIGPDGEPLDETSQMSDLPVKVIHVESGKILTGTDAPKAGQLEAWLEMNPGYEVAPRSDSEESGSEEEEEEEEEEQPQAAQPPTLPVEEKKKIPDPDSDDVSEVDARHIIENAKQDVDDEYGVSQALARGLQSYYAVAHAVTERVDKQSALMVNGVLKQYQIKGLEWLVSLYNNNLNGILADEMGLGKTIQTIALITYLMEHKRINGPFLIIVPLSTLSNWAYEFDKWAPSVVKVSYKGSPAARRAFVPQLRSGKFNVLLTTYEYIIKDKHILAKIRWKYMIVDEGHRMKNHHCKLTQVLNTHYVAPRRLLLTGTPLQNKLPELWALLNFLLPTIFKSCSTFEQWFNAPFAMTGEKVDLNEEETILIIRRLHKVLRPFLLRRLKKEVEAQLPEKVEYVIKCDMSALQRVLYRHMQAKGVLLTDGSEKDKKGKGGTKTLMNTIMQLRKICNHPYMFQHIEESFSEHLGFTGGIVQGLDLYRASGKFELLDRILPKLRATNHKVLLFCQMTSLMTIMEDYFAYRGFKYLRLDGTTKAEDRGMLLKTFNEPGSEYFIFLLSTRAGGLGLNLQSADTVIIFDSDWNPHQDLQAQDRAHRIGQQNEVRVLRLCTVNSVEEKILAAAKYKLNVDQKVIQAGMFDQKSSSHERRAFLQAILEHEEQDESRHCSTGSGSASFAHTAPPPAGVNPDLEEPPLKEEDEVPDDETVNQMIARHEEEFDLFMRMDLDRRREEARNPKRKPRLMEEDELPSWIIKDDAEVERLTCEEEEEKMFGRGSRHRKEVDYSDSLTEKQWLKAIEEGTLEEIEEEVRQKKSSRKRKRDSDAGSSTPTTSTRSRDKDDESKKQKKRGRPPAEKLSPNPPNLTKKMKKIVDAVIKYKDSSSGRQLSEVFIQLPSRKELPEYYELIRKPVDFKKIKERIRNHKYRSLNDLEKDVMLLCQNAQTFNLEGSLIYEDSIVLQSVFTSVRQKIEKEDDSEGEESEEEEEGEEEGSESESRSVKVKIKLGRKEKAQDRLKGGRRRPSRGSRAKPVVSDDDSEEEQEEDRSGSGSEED

[3] = biological target: T1, Bromodomain-containing protein 7 (Homo sapiens) (UniProt Q9NPI1); assay: Binding affinity to BRD7 (unknown origin) using biotinylated histone peptide H4 as substrate at 1 uM incubated for 2 hrs by AlphaScreen assay relative to control
T1 sequence (whole entry): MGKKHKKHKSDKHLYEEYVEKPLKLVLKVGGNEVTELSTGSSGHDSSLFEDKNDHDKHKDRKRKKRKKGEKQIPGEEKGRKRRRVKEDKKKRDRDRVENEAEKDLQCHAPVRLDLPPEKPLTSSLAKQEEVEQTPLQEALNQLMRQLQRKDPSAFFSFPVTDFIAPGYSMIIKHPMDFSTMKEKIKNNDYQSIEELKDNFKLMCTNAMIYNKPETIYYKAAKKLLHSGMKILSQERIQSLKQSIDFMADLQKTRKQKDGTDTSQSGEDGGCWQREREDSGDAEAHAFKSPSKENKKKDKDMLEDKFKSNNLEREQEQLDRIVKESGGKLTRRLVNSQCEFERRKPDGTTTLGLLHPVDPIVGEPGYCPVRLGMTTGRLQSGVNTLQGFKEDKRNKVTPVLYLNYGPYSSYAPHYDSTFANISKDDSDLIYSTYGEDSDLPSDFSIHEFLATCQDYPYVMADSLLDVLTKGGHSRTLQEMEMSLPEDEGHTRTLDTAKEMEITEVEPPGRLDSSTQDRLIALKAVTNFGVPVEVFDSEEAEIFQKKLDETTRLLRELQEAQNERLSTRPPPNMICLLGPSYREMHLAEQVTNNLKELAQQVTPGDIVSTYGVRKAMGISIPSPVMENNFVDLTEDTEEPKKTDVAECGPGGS

Homo sapiens [4] = species on record: Homo sapiens; assay: Binding affinity to PHIP2 (unknown origin) using biotinylated histone peptide H4 as substrate at 1 uM incubated for 2 hrs by AlphaScreen assay relative to control
MV4-11 = assay: cells; conditions: Homo sapiens, MV4-11, 48 h
Description: Antiproliferative activity against human MV4-11 cells assessed as inhibition of cell growth incubated for 48 hrs by MTT assay

MM1.S = assay: cells; conditions: Homo sapiens, 48 h
Description: Antiproliferative activity against human MM1.S cells assessed as inhibition of cell growth incubated for 48 hrs by MTT assay

[5] = biological target: T2, Transcription intermediary factor 1-alpha (Homo sapiens) (UniProt O15164); conditions: time 30.0 min
T2 sequence (whole entry): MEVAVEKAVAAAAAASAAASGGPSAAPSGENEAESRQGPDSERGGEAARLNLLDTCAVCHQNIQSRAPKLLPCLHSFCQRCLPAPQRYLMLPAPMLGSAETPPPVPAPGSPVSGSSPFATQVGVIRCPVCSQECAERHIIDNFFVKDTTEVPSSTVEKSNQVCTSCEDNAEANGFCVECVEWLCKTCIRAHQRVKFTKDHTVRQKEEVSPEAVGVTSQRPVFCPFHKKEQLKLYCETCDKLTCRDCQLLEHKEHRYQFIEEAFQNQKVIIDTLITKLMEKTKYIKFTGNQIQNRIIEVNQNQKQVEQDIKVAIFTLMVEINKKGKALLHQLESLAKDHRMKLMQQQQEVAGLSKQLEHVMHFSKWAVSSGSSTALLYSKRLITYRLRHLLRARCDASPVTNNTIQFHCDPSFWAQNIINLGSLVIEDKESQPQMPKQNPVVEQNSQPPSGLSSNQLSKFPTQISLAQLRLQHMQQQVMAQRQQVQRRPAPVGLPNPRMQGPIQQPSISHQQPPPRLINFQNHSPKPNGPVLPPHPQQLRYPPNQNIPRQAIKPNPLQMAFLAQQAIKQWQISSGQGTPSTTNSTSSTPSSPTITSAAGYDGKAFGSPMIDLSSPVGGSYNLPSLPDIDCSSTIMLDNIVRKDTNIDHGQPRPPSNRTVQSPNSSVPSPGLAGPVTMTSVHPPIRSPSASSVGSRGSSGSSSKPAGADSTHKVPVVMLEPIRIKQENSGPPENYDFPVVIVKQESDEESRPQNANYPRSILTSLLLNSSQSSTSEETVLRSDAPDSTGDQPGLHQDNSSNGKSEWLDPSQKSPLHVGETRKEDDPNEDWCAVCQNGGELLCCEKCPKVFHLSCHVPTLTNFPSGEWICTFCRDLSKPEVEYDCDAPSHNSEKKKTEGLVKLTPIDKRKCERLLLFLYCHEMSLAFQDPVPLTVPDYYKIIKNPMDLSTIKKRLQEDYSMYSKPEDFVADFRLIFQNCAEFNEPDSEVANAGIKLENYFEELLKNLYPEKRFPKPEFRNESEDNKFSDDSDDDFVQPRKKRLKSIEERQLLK

[6] = biological target: Histone acetyltransferase KAT2B (Homo sapiens) (UniProt Q92831); conditions: time 30.0 min
[7] = biological target: T3, Bromodomain-containing protein 9 (Homo sapiens) (UniProt Q9H8M2); assay: Binding affinity to BRD9 (unknown origin) using biotinylated histone peptide H4 as substrate at 1 uM incubated for 2 hrs by AlphaScreen assay relative to control
T3 sequence (whole entry): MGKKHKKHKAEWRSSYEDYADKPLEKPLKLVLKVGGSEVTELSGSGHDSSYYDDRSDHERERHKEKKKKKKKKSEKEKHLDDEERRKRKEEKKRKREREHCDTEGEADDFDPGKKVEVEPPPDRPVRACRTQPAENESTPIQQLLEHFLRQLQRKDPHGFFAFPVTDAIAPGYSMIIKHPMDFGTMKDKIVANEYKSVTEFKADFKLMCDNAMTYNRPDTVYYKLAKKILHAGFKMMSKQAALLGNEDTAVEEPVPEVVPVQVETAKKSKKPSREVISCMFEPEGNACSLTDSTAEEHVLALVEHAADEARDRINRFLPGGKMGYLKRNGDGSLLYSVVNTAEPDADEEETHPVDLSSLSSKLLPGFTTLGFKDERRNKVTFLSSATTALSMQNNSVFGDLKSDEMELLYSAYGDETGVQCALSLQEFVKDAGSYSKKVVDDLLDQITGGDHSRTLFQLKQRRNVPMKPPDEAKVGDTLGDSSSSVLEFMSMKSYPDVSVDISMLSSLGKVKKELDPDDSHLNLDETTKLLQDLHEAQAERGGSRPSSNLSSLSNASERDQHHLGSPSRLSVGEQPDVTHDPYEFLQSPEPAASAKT

Homo sapiens [8] = species on record: Homo sapiens; conditions: time 30.0 min
[9] = biological target: Chromatin remodeling regulator CECR2 (Homo sapiens) (UniProt Q9BXF3); conditions: time 30.0 min
Chain of Chromatin remodeling regulator CECR2 (Homo sapiens) (Q9BXF3 whole entry, looked up): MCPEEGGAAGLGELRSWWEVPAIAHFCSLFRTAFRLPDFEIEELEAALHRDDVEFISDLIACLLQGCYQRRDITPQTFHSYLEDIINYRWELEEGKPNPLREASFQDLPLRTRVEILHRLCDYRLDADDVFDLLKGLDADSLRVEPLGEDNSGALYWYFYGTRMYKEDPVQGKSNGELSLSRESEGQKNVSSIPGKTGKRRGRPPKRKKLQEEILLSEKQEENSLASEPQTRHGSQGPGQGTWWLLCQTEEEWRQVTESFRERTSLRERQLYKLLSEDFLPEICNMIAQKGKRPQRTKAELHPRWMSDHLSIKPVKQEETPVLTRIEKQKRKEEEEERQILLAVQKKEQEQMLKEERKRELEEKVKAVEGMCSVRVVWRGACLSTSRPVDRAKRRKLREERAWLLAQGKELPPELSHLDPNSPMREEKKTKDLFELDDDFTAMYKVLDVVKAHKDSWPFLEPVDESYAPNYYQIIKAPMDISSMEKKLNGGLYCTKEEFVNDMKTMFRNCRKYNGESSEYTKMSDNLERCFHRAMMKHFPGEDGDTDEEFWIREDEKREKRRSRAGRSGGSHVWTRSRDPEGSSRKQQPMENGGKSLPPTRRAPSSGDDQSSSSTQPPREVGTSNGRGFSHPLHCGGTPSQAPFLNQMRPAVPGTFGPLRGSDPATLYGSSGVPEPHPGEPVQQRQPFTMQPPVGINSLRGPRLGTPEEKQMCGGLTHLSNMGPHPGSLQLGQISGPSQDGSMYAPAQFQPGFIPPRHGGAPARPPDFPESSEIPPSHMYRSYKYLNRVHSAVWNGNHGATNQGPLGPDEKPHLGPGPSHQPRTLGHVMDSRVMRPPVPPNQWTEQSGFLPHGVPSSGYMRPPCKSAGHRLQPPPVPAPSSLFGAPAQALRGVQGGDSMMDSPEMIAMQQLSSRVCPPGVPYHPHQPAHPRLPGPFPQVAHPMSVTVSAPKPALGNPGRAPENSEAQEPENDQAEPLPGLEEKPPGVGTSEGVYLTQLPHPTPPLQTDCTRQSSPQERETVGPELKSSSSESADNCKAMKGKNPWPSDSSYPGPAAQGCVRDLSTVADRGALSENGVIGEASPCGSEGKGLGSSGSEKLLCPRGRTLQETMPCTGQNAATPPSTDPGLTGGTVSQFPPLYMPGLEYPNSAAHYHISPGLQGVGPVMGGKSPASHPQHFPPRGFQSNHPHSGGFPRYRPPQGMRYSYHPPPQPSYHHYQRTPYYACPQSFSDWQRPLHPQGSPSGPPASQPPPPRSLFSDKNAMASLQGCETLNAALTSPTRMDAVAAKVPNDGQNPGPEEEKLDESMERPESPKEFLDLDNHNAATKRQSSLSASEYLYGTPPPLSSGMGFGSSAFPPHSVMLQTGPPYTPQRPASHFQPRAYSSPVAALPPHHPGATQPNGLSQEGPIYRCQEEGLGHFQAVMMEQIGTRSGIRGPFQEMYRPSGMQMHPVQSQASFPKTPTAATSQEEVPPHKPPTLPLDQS

[10] = biological target: Histone acetyltransferase p300 (Homo sapiens) (UniProt Q09472); assay: Binding affinity to EP300 (unknown origin) using biotinylated histone peptide H4 as substrate at 1 uM incubated for 2 hrs by AlphaScreen assay relative to control

Chain of Transcription initiation factor TFIID subunit 1 (Homo sapiens) (P21675 whole entry): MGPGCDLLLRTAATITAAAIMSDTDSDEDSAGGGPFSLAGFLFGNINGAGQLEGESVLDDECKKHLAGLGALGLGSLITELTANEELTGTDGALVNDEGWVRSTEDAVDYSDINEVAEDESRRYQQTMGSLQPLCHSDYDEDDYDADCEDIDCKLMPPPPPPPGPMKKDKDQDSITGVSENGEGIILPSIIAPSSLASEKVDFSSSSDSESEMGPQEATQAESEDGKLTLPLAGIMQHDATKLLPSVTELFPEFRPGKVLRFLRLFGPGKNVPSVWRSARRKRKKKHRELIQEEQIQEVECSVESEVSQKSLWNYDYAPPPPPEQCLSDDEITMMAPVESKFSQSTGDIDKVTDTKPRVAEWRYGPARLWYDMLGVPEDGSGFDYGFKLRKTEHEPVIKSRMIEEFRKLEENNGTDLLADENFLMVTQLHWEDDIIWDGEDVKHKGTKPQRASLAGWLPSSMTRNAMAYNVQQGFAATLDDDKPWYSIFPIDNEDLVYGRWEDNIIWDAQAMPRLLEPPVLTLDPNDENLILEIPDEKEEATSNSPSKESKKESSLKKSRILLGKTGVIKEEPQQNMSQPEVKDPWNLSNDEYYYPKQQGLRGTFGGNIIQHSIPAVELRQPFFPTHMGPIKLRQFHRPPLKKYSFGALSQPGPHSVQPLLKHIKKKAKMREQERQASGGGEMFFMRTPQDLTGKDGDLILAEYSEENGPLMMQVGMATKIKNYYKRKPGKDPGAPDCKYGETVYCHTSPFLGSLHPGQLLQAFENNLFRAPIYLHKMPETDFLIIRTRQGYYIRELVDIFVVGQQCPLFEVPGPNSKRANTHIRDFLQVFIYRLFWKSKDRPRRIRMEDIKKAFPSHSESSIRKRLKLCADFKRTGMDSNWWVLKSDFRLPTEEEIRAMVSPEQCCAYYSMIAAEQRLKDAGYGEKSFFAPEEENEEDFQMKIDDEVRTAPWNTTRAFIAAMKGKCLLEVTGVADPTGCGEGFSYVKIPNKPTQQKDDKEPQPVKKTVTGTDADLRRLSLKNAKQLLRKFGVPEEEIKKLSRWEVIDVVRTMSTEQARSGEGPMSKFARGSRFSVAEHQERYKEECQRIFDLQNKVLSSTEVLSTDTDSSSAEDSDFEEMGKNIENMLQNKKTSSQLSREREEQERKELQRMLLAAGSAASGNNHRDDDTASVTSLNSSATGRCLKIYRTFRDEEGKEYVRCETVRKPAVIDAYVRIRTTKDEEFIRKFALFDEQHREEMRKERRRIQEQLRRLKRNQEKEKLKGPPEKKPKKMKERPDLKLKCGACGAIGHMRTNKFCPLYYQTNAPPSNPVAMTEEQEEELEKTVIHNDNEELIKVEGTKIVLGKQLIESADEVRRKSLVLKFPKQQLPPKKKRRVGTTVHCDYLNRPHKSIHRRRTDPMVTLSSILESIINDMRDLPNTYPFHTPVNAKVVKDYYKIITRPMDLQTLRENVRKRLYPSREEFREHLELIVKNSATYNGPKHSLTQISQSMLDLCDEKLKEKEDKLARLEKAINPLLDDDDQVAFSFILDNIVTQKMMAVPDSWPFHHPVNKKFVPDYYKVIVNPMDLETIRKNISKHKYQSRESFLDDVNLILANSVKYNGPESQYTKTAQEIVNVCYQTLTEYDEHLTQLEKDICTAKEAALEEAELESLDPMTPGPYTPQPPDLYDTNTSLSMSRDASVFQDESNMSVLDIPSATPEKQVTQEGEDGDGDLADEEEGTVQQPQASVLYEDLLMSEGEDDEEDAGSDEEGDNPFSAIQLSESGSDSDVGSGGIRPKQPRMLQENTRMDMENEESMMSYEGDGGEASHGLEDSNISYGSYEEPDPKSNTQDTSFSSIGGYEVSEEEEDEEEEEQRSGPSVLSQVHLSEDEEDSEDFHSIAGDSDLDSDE

| ΔTm [1] | Activity [2] | Activity [3] | Activity (Homo sapiens [4]) | IC50 (MV4-11) | IC50 (MM1.S) | ΔTm [5] | ΔTm [6] | Activity [7] | ΔTm (Homo sapiens [8]) | ΔTm [9] | Activity [10] | Compound |
| --- | --- | --- | --- | --- | --- | --- | --- | --- | --- | --- | --- | --- |
| 0 °C | < 30% | < 30% | < 30% | 190 nM | 530 nM | 0 °C | 0 °C | < 30% | 0 °C | 0 °C | > 80% | COc1cc2c(cc1-c1c(C)noc1C)ncc1nc(C)n([C@H](C)c3ccccc3)c12 |
| 0 °C | < 30% | < 30% | < 30% | 800 nM | 480 nM | 0 °C | 0 °C | < 30% | 0 °C | 0 °C | < 30% | COc1cc2c(cc1-c1c(C)n[nH]c1C)ncc1nc(C)n([C@H](C)c3ccccc3)c12 |
